Values after ≈ are worked out from the molar mass of the structure shown.
Experiments:
Candida albicans [1] = assay: Inhibition of ergosterol in Candida albicans MTCC 183 after 20 hrs by UV spectrophotometric method; assay type: functional, organism-based
Candida albicans [2] = assay: Antifungal activity against Candida albicans MTCC 183 after 24 hrs by well diffusion method; assay type: functional; details: MTCC 183, 24 h
Candida albicans [3] = assay: Antifungal activity against Candida albicans MTCC 227 after 24 hrs by well diffusion method; assay type: functional; details: MTCC 227, 24 h
Candida albicans [4] = assay: Antifungal activity against Candida albicans MTCC 854 after 24 hrs by well diffusion method; assay type: functional; details: MTCC 854, 24 h
Candida albicans [5] = assay: Antifungal activity against Candida albicans MTCC 1637 after 24 hrs by well diffusion method; assay type: functional; details: MTCC 1637, 24 h
Candida albicans [6] = assay: Antifungal activity against Candida albicans MTCC 3018 after 24 hrs by well diffusion method; assay type: functional; details: MTCC 3018, 24 h
Candida albicans [7] = assay: Antifungal activity against Candida albicans MTCC 3017 after 24 hrs by well diffusion method; assay type: functional; details: MTCC 3017, 24 h
Candida albicans [8] = assay: Antifungal activity against Candida albicans MTCC 3958 after 24 hrs by well diffusion method; assay type: functional; details: MTCC 3958, 24 h
Candida albicans [9] = assay: Antifungal activity against Candida albicans MTCC 4748 after 24 hrs by well diffusion method; assay type: functional; details: MTCC 4748, 24 h
Candida albicans [10] = assay: Antifungal activity against Candida albicans MTCC 7315 after 24 hrs by well diffusion method; assay type: functional; details: MTCC 7315, 24 h
Candida parapsilosis [11] = assay: Antifungal activity against Candida parapsilosis MTCC 1744 after 24 hrs by well diffusion method; assay type: functional; details: MTCC 1744, 24 h
[Candida] aaseri [12] = Antifungal activity against Candida aaseri MTCC 1962 after 24 hrs by well diffusion method; assay type: functional; details: Yamadazyma aaseri, MTCC 1962, 24 h
Nakaseomyces glabratus [13] = assay: Antifungal activity against Candida glabrata MTCC 3019 after 24 hrs by well diffusion method; assay type: functional; details: MTCC 3019, 24 h
Pichia kudriavzevii [14] = assay: Antifungal activity against Candida krusei MTCC 3020 after 24 hrs by well diffusion method; assay type: functional; details: MTCC 3020, 24 h
Pichia sporocuriosa [15] = assay: Antifungal activity against Issatchenkia hanoiensis MTCC 4755 after 24 hrs by well diffusion method; assay type: functional; details: MTCC 4755, 24 h
Candida albicans [16] = assay: Fungicidal activity against Candida albicans MTCC 183 incubated for 24 hrs followed by transfer of microbial suspension to Sabouraud dextrose agar plates and measured after 24 hrs post transfer; assay type: functional; details: MTCC 183, 24 h
Candida albicans [17] = assay: Fungicidal activity against Candida albicans MTCC 227 incubated for 24 hrs followed by transfer of microbial suspension to Sabouraud dextrose agar plates and measured after 24 hrs post transfer; assay type: functional; details: MTCC 227, 24 h
Candida albicans [18] = assay: Fungicidal activity against Candida albicans MTCC 854 incubated for 24 hrs followed by transfer of microbial suspension to Sabouraud dextrose agar plates and measured after 24 hrs post transfer; assay type: functional; details: MTCC 854, 24 h
Candida albicans [19] = assay: Fungicidal activity against Candida albicans MTCC 1637 incubated for 24 hrs followed by transfer of microbial suspension to Sabouraud dextrose agar plates and measured after 24 hrs post transfer; assay type: functional; details: MTCC 1637, 24 h
Candida albicans [20] = assay: Fungicidal activity against Candida albicans MTCC 3017 incubated for 24 hrs followed by transfer of microbial suspension to Sabouraud dextrose agar plates and measured after 24 hrs post transfer; assay type: functional; details: MTCC 3017, 24 h
Candida albicans [21] = assay: Fungicidal activity against Candida albicans MTCC 3018 incubated for 24 hrs followed by transfer of microbial suspension to Sabouraud dextrose agar plates and measured after 24 hrs post transfer; assay type: functional; details: MTCC 3018, 24 h
Candida albicans [22] = assay: Fungicidal activity against Candida albicans MTCC 3958 incubated for 24 hrs followed by transfer of microbial suspension to Sabouraud dextrose agar plates and measured after 24 hrs post transfer; assay type: functional; details: MTCC 3958, 24 h
Candida albicans [23] = assay: Fungicidal activity against Candida albicans MTCC 4748 incubated for 24 hrs followed by transfer of microbial suspension to Sabouraud dextrose agar plates and measured after 24 hrs post transfer; assay type: functional; details: MTCC 4748, 24 h
Candida albicans [24] = assay: Fungicidal activity against Candida albicans MTCC 7315 incubated for 24 hrs followed by transfer of microbial suspension to Sabouraud dextrose agar plates and measured after 24 hrs post transfer; assay type: functional; details: MTCC 7315, 24 h
Candida parapsilosis [25] = assay: Fungicidal activity against Candida parapsilosis MTCC 1744 incubated for 24 hrs followed by transfer of microbial suspension to Sabouraud dextrose agar plates and measured after 24 hrs post transfer; assay type: functional; details: Lodderomyces parapsilosis, MTCC 1744, 24 h
[Candida] aaseri [26] = Fungicidal activity against Candida aaseri MTCC 1962 incubated for 24 hrs followed by transfer of microbial suspension to Sabouraud dextrose agar plates and measured after 24 hrs post transfer; assay type: functional; details: Yamadazyma aaseri, MTCC 1962, 24 h
Nakaseomyces glabratus [27] = assay: Fungicidal activity against Candida glabrata MTCC 3019 incubated for 24 hrs followed by transfer of microbial suspension to Sabouraud dextrose agar plates and measured after 24 hrs post transfer; assay type: functional; details: MTCC 3019, 24 h
Pichia kudriavzevii [28] = assay: Fungicidal activity against Candida krusei MTCC 3020 incubated for 24 hrs followed by transfer of microbial suspension to Sabouraud dextrose agar plates and measured after 24 hrs post transfer; assay type: functional; details: MTCC 3020, 24 h
Pichia sporocuriosa [29] = assay: Fungicidal activity against Issatchenkia hanoiensis MTCC 4755 incubated for 24 hrs followed by transfer of microbial suspension to Sabouraud dextrose agar plates and measured after 24 hrs post transfer; assay type: functional; details: MTCC 4755, 24 h

## Clc1ccc(COC(Cn2ccnc2)c2ccc(Cl)cc2Cl)c(Cl)c1 (centres undefined) [MICONAZOLE]
Candida albicans [1]
  inhibition: Dose-dependent effect
Candida albicans [2]
  MIC: 7.8 µg/mL (≈ 18.7 µM)
Candida albicans [3]
  MIC: 7.8 µg/mL (≈ 18.7 µM)
Candida albicans [4]
  MIC: 7.8 µg/mL (≈ 18.7 µM)
Candida albicans [5]
  MIC: 7.8 µg/mL (≈ 18.7 µM)
Candida albicans [6]
  MIC: 7.8 µg/mL (≈ 18.7 µM)
Candida albicans [7]
  MIC: 7.8 µg/mL (≈ 18.7 µM)
Candida albicans [8]
  MIC: 7.8 µg/mL (≈ 18.7 µM)
Candida albicans [9]
  MIC: 7.8 µg/mL (≈ 18.7 µM)
Candida albicans [10]
  MIC: 7.8 µg/mL (≈ 18.7 µM)
Candida parapsilosis [11]
  MIC: 7.8 µg/mL (≈ 18.7 µM)
[Candida] aaseri [12]
  MIC: 7.8 µg/mL (≈ 18.7 µM)
Nakaseomyces glabratus [13]
  MIC: 7.8 µg/mL (≈ 18.7 µM)
Pichia kudriavzevii [14]
  MIC: 7.8 µg/mL (≈ 18.7 µM)
Pichia sporocuriosa [15]
  MIC: 7.8 µg/mL (≈ 18.7 µM)
Candida albicans [16]
  MFC: 7.8 µg/mL (≈ 18.7 µM)
Candida albicans [17]
  MFC: 7.8 µg/mL (≈ 18.7 µM)
Candida albicans [18]
  MFC: 15.6 µg/mL (≈ 37.5 µM)
Candida albicans [19]
  MFC: 7.8 µg/mL (≈ 18.7 µM)
Candida albicans [20]
  MFC: 7.8 µg/mL (≈ 18.7 µM)
Candida albicans [21]
  MFC: 15.6 µg/mL (≈ 37.5 µM)
Candida albicans [22]
  MFC: 7.8 µg/mL (≈ 18.7 µM)
Candida albicans [23]
  MFC: 7.8 µg/mL (≈ 18.7 µM)
Candida albicans [24]
  MFC: 15.6 µg/mL (≈ 37.5 µM)
Candida parapsilosis [25]
  MFC: 7.8 µg/mL (≈ 18.7 µM)
[Candida] aaseri [26]
  MFC: 15.6 µg/mL (≈ 37.5 µM)
Nakaseomyces glabratus [27]
  MFC: 7.8 µg/mL (≈ 18.7 µM)
Pichia kudriavzevii [28]
  MFC: 15.6 µg/mL (≈ 37.5 µM)
Pichia sporocuriosa [29]
  MFC: 15.6 µg/mL (≈ 37.5 µM)

Reference: ChEMBL document CHEMBL4219190, “Studies on synthesis of novel pyrido[2,3-d]pyrimidine derivatives, evaluation of their antimicrobial activity and molecular docking” (Bioorg Med Chem Lett, 2018)
